Laboratory results published in patent publication US20170266157A1, “METHODS FOR WOUND HEALING AND SCAR PREVENTION” (priority 2016, published 2017).

Tests used:
[1] = tested on: resection site of a periauricular basal cell carcinoma; assay: Healing of full-thickness resection site of periauricular basal cell carcinoma, topical treatment; format: in vivo, person
Description: A person underwent a full-thickness resection of a basal cell carcinoma on an outpatient basis. See FIG. 1, panel a. showing wound during operation and panel b. showing wound immediately post operation. RT175 formulated in an Amantle™ cream base was applied immediately post-operatively, and then daily thereafter for 12 days. […] An archival photo of a scar biopsy is included for comparison.

[2] = tested on: ED&C sites of the supradeltoid regions of the upper arm; assay: Healing after electrodissection and curettage (ED&C) of the upper arm, topical treatment; format: in vivo, person
Protocol: The supradeltoid regions of the left and right upper arm were treated by electrodissection and curettage (“ED&C”) for treatment of basal cell […]. Beginning on the day of surgery, and daily thereafter the sites were treated with RT175 in an Amantle™ cream base, or with the Amantle™ cream base alone. […] See FIG. 2, Day 20, bottom panel. In contrast, 68 days after the procedure the vehicle treated site was still not fully closed. Six-months following the procedure, the RT175-treated site was scar-free, see FIG. 3, panel a., while the vehicle-treated site has a pronounced, hypopigmented stellate shaped scar, see FIG. 3, panel b.

[3] = biological target: T1, FK506 binding protein 4 (FKBP52) (Homo sapiens, UniProt Q02790); conditions: cited from earlier work
T1 sequence (Q02790 1-459): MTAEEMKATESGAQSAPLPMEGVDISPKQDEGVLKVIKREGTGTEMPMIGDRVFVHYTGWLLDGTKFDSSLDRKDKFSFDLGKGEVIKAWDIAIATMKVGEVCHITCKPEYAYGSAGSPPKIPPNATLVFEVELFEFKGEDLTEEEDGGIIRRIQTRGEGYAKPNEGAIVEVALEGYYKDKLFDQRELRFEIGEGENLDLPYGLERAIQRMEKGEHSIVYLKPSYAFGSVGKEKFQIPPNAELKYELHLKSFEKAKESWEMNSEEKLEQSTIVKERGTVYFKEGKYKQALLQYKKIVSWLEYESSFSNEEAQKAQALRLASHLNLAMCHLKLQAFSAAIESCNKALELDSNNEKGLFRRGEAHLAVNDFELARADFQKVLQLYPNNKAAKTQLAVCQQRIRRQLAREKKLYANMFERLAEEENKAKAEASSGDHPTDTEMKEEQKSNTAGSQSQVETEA

[4] = tested on: stem cell markers Oct-4 and Sox-2; assay: Stem cell marker immunohistology of treated 5 mm dermal biopsy punch sites; format: in vivo, person; conditions: RT175 in Amantle cream base daily for 30 days, re-biopsy, 10 micron sections
Protocol: A person underwent bilateral 5 millimeter (“mm”) dermal biopsy punches in the forearm, 5 centimeter (“cm”) distal to the antecubital space. Treatment with RT175 in an Amantle™ cream base, or with the Amantle™ cream base alone was begun immediately upon hemostasis. The skin was treated daily for 30 days, whereupon the sites were re-biopsied and the tissue processed for immunohistology. 10 micron thick sections were stained for the expression of the stem cell markers Oct-4, see FIG. 4, panels a. and c., or Sox-2, see FIG. 4, panels b. and d. […] Not to be held to a particular theory, the presence of stem cells markers in RT175 treated wound sites indicates active stem cells. The presence of these stem cells in the wound site causes rapid and proper wound healing without the formation of scar tissue. In turn, the absence of stem cells from wound sites allows the formation of scar tissue.

[5] = biological target: T2, FKBP52 (Homo sapiens, UniProt Q02790); conditions: treatment of fibroblasts for 2 hours; cited from earlier work
T2 construct: endogenous in cells
T2 sequence (Q02790 1-459): T1 sequence (Q02790 1-459)

[6] = tested on: dermabrasion lesions of dorsal skin; assay: Dermabrasion lesions of dorsal skin of mice, topical treatment; format: in vivo, ICR breeder mice; conditions: 5 μL of 100 nanomolar RT1061 topical once daily, 10 days after rasping
Protocol: Retired ICR breeder mice of both sexes with weight between 45 and 50 grams were shaved and rasped to induce dermabrasion lesions. The animals were then randomly assigned (5 per treatment arm) to one of two groups to receive either 5 μL of 100 nanomolar RT1061 or a vehicle control. RT1061 or vehicle control was applied topically to the lesion site once each day including immediately after dermabrasion.

[7] = tested on: ear punch-hole wound (mouse pinna); assay: Punch-hole biopsy of the ear of mice, topical treatment; format: in vivo, ICR breeder mice; conditions: topical once daily, within 21 days of punch-hole biopsy; 2.4 μg RT1061, 80 μg FK506
Protocol: Retired ICR breeder mice of both sexes with weight between 45 and 50 grams were subject to single bilateral punch-hole biopsies. The animals were then randomly assigned to one of three groups to receive either 2.4 μg of RT1061, 80 μg FK506 or a vehicle control. RT1061, FK506 or vehicle control was applied topically to both the ventral and dorsal surface of the ear, once each day including immediately after biopsy.
All wounds were photographed using a Nikon CoolPix 990 digital camera. Each image included a metric ruler that had been approximated to the wound. The images of the wounds were opened in Adobe Photoshop, and using the “measurement tool”, the length, in pixels, of 3 cm along the ruler's straight edge was determined. That number was used to calculate a conversion factor that was then used to normalize each photograph. The conversion factor was calculated as 100/length. To normalize the area of the lesion in a photograph, the […] using the “magic wand” tool, and the number of voxels were multiplied by the conversion factor, thus generating the equation: area=volume (voxels)*conversion factor. The area at t=0 was defined as 100%. […] The mean area of the initial hole was calculated as average […] of the punches at t=0 (determined by using an outline of the hole measured against the ruler, using Adobe Photoshop) times π. […]

CCC(C)(C)C(=O)C(=O)N1CCC[C@H]1C(=O)O [RT175]
scar observed, skin appearance ([1]; 12th post-operative day, RT175 in Amantle cream base daily): little to no scar
wound closed and largely healed by ([1]; RT175 in Amantle cream base, applied immediately post-operatively then daily for 12 days): ≤ 7 post-operative day
scar tissue by biopsy ([1]; biopsy 6 months later): absence of scar tissue
treated site fully closed by ([2]; RT175 in Amantle cream base daily, vehicle site still not fully closed at 68 days): ≤ 20 post-operative day
scar at treated site ([2]; six months following the procedure): scar-free
binding affinity to FKBP52 [3]: high affinity
expression of stem cell markers Oct-4 and Sox-2 in treated tissue [4]: expressed both stem cell markers
translocation of FKBP52 [5]: translocation of FKBP52 to the nucleus

CCC(C)(C)C(=O)C(=O)N1CCCC1Cc1ccccc1 (centres unmarked) [RT1061, 1-(2-benzylpyrrolidin-1-yl)-3,3-dimethylpentane-1,2-dione]
hair growth [6]: rapid hair growth
regeneration of rasped skin [6]: rapid regeneration of rasped skin
regeneration of mouse pinna tissue (ear-hole closure) [7]: almost complete regeneration of the mouse pinna
